Measurements reported in patent EP1931657B1, “NOVEL HIGH AFFINITY QUINOLINE-BASED KINASE LIGANDS” (Merck Sharp & Dohme Corp., priority 2005, dated 2007).

Target: CDK-2 (Homo sapiens, UniProt P24941)
Assay: CDK-2 inhibition, fluorescence polarization displacement assay
Method: Binding assays were performed in a 384 well Costar NBS coated plate. […] The concentration of BMS-Alexa Fluor647 was 50 nM. Serial dilutions of compounds were added to 12 wells. The final buffer concentration was 10 mM Hepes, pH 7.5, 150 mM NaCl, and 1 mM DTT. Samples were incubated at room temperature for 15 minutes and then read in an Analyst HT instrument using an excitation and emission wavelength of 580 and 680 nm, respectively.

IC50, > 40 µM:
COC(=O)[C@H](Cc1ccc(O)cc1)NC(=O)c1cc(C(=O)OCC(N)C(C)C)c2cc(-c3cccs3)ccc2n1 (stereo partly drawn) [Compound 228]
COC(=O)c1cc(C(=O)N[C@@H](Cc2ccc(O)cc2)C(=O)OC)nc2ccc(-c3cccs3)cc12 [Compound 229]
COC(=O)[C@H](Cc1ccc(O)cc1)NC(=O)c1cc(C(=O)OCCO)c2cc(-c3cccs3)ccc2n1 [Compound 230]
CCCCOC(=O)c1cc(C(=O)N[C@@H](Cc2ccc(O)cc2)C(=O)OC)nc2ccc(-c3cccs3)cc12 [Compound 231]
COC(=O)[C@H](Cc1ccc(O)cc1)NC(=O)c1cc(C(=O)Nc2nnn[nH]2)c2cc(-c3cccs3)ccc2n1 [Compound 234]
COC(=O)C(Cc1ccc(O)cc1)NC(=O)c1cc(C(=O)NC(C)C)c2cc(-c3cccs3)ccc2n1 (stereo not drawn) [Compound 235]
